The text below walks through data of patent US20090197933A1, “IMIDAZOLINYLMETHYL ARYL SULFONAMIDE” (priority 2008, published 2009).

In one series the target is T1, alpha-1A adrenoceptors (Homo sapiens, UniProt P35348).
T1 sequence (P35348 1-466): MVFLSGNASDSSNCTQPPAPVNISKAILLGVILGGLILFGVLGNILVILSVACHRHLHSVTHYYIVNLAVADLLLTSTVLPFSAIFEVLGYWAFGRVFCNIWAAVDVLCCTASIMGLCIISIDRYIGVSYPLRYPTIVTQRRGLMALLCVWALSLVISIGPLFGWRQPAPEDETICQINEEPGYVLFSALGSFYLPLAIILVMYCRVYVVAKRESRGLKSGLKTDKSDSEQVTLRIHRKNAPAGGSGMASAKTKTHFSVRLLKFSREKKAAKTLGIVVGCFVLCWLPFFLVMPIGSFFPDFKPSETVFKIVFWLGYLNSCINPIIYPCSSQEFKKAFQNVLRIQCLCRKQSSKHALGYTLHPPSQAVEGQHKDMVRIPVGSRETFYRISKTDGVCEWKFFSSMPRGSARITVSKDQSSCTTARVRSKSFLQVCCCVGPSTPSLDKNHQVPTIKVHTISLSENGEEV
As to the kind of experiment: alpha-1A adrenoceptor partial agonist activity (intrinsic activity and pEC50). The format is cell-based.

Series [1] deals with Female, Dutch Belted rabbits. As to the kind of experiment: Anesthetized rabbit model: intraurethral pressure (IUP) and mean arterial blood pressure (MAP). The format is in vivo. The note with it: i.v.; for durability of IUP response over time: slope of IUP response 2-7 minutes post the first peak, top 3 doses. The method, then:
In general, IUP is the intraurethral pressure and is measured as the 2 minute mean from the first peak of the urethral response (FIG. 1). MAP is the mean arterial blood pressure and is measured as the average blood pressure during the 2 minute section where IUP is measured. The durability is the slope of the IUP response in mmHg/min and is calculated immediately after the 2 minute IUP response for 5 minutes (2-7 minutes post the first peak) for the top 3 doses.
Surgery: Female, Dutch Belted rabbits (1.20-2.0 kg, Myrtle's Rabbitry, Tenn.) were anesthetized with isoflurane (3.0% at 2 to 4 L/min) and urethane (1.5 grams/kg, s.c.). In preparation for surgery, the rabbits were shaved, scrubbed (i.e., perineal area, ventral neck, and ventral, caudal surface of the abdomen) and were administered Ringers Lactate Solution (s.c.) to maintain fluids. The femoral vein and carotid artery were isolated and cannulated with PE-50 and PE-90 tubing (Becton-Dickinson), respectively, for the administration of drugs (vein) and the measurement of blood pressure (artery). An abdominal incision was made, exposing the ureters and the bladder. The ureters were isolated and cannulated proximal to the urinary bladder with PE-50 tubing, to drain urine from the kidneys. […]
Experiment: The arterial cannula was connected to a P23XL pressure transducer (Grass Technologies, West Warwick, R.I.) and the arterial pressure transducer and Unisensor urethral transducer catheter were connected to an Gould 13-6615-50 amplifier (Data Sciences International, St. Paul, Minn.) and Gould TA6000 recorder (Data Sciences International, St. Paul, Minn.) in parallel. All data was analyzed using Power Lab Chart version 5.0.2 (ADInstruments, Colorado Springs, Colo.) data acquisition system. […]
Measurements: The change in IUP and MAP from baseline were measured as well as the slope of the IUP response. MAP was first calculated according to the following formula, where Pd is diastolic pressure and Ps is systolic pressure: MAP=Pd+⅓ (Ps−Pd). Pre-dose baseline values for IUP and MAP were assessed during a 2 min period just prior to vehicle or test compound administration. Post-dose values for IUP or MAP were determined during a 2 min period at the first peak in the IUP tracing following vehicle or test compound administration. The change in IUP and MAP induced by vehicle or test compound were then calculated by subtracting the pre-dose value from the post-dose value. The rate of decline (mmHg/min) in the IUP response was determined by taking the average slope during the 5 min. period immediately following the 2 min. efficacy measurement for the top three doses. […]

In the case of `Cc1c(CC2=NCCN2)ccc(NS(C)(=O)=O)c1F` [Formula I, N-[4-(4,5-Dihydro-1H-imidazol-2-ylmethyl)-2-fluoro-3-methyl-phenyl]-methanesulfonamide], at alpha-1A adrenoceptors (ideally between 0.35 to 0.60), the “intrinsic activity, or efficacy, as a partial agonist” value is 0.46. Further, the EC50 on alpha-1A adrenoceptors (read-out: affinity, or pEC50 value (converted)) was 631 nM. Besides, in series [1], the “maximum increase in MAP (arterial blood pressure)” value amounted to 10.62 mmHg. The “selectivity for enhancement of intraurethral pressure (IUP) over blood pressure (MAP) (Urethral Selectivity MAP/IUP = ED10 of MAP/ED10 of IUP)” value in series [1] (at the 10 mmHg change in IUP level) was 2.13 fold. For the same compound, the “durability of IUP response over time” value is “improved durability of IUP response over time” in series [1] and “increased durability of IUP response over time” in series [1] (listed as formula I).
